# Test results taken from publication PMC11433825, “Bidentate Substrate Binding Mode in Oxalate Decarboxylase” (Molecules, 2024).
# Structures can show the parent of a compound that is named as a salt.
# How the values were obtained:
# [1] = biological target: T1, Oxalate decarboxylase (OxDC) (Bacillus subtilis, UniProt O34714, W96F); assay: X-band […] Mims ENDOR; assay type: binding; conditions: labelled compound (13C), 50 mM; citrate pH 5.0, 50% glycerol, 10 mM ascorbate, 5 uM DTPA; 5 K; bidentate to N-terminal active-site Mn(II)
# T1 construct: recombinant, C-terminal His6 tag kept, IPTG/heat-shock expression with MnCl2, Ni-NTA purified; Mn(II) in two cupin sites per subunit
# T1 sequence (O34714 whole entry W96F): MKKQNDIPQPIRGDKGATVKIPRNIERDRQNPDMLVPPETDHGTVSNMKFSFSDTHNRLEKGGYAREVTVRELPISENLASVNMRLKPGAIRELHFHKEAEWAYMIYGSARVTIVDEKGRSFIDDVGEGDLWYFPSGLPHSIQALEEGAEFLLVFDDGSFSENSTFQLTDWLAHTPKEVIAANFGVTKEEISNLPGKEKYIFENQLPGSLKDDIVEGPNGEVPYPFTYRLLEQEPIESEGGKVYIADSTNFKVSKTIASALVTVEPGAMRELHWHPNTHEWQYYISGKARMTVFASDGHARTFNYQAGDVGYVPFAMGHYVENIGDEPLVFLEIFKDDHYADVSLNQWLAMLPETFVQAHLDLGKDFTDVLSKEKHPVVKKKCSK
# [2] = biological target: T2, Oxalate decarboxylase (OxDC) (Bacillus subtilis, UniProt O34714); assay: X-band […] Mims ENDOR; assay type: binding; conditions: labelled compound (13C), 50 mM; Tris pH 8.5, 50% glycerol, 10 mM ascorbate, 5 uM DTPA; 5 K; bidentate to N-terminal active-site Mn(II)
# T2 construct: recombinant, C-terminal His6 tag kept, IPTG/heat-shock expression with MnCl2, Ni-NTA purified; Mn(II) in two cupin sites per subunit
# T2 sequence (O34714 whole entry): as the sequence (O34714 whole entry W96F) above, with F96W counted along it
smiles,measurement,setting,value
O=C(O)C(=O)O [^13C-labeled oxalate],X-band 13C Mims ENDOR,[1],Mn(II) ion in the active site of the OxDC mutant W96F at low pH
same,X-band 13C Mims ENDOR,[2],bidentate binding of oxalate in WT OxDC at high pH where the enzyme is inactive
